Data set [1] has as its system Rattus norvegicus. The experiment in a line: Toxicity in Wistar Han rat assessed as induction of slight lethargy at 1 mg/kg, iv after 0.25 hrs. The note with it: in vivo. Type of data set: organism-based.
Data set [2] concerns Rattus norvegicus. Briefly: Toxicity in Wistar Han rat assessed as induction of slight lethargy at 5 mg/kg, iv after 1 hr. Type of data set: organism-based. The note with it: in vivo.
Data set [3] in a line: Plasma concentration in Wistar Han rat at 1 mg/kg, iv measured 1 hr post compound administration. In kind it is ADME, organism-based.
The nature of data set [4]: Drug level in Wistar Han rat brain at 1 mg/kg, iv measured 1 hr post compound administration. The settings on record: Wistar Han, brain, read-out: Drug uptake. In kind it is ADME, organism-based.
Data set [5] in a line: Ratio of drug level in brain to plasma in Wistar Han rat at 1 mg/kg, iv after 1 hr. Type of data set: ADME, organism-based. The settings on record: read-out: BPR.
The nature of data set [6]: Plasma concentration in Wistar Han rat at 1 mg/kg, iv measured 0.25 hrs post compound administration. In kind it is ADME, organism-based.
Data set [7] is described as follows: Plasma concentration in Wistar Han rat at 0.3 mg/kg, iv measured 0.25 hrs post compound administration. In kind it is ADME, organism-based.
Data set [8] can be described thus: Plasma concentration in Wistar Han rat at 0.3 mg/kg, iv measured 1 hr post compound administration. In kind it is ADME, organism-based.
A short description of data set [9]: Drug level in Wistar Han rat brain at 0.3 mg/kg, iv measured 1 hr post compound administration. In kind it is ADME, organism-based. The note with it: read-out: Drug uptake.
In data set [10] the test system is Rattus norvegicus. Briefly: Toxicity in Wistar Han rat assessed as induction of hunched or abnormal posture at 0.3 mg/kg, iv measured up to 2 hrs. Type of data set: organism-based. The settings on record: in vivo.
A short description of data set [11]: Ratio of drug level in brain to plasma in Wistar Han rat at 0.3 mg/kg, iv after 1 hr. In kind it is ADME, organism-based. The note with it: read-out: BPR.
Data set [12] is described as follows: Ratio of drug level in brain to plasma in Wistar Han rat at 0.3 mg/kg, iv after 0.25 hrs. Type of data set: ADME, organism-based. The settings on record: read-out: BPR.
For data set [13], the system named is Rattus norvegicus. The experiment in a line: Toxicity in Wistar Han rat assessed as induction of lethargy at 0.3 mg/kg, iv measured up to 2 hrs. In kind it is organism-based. The settings on record: in vivo.
Data set [14] relates to Mus musculus. The experiment in a line: Antiinflammatory activity in oxazolone-induced delayed type hypersensitivity BALB/c mouse model assessed as ear thickness level at 0.6 mg applied topically on ear administered 3 hrs prior to oxazolone challenge on day 7 to 12 post sensitization followed by re-administration of compound on day 13 to 18 without oxazolone challenge measured on day 19 by H and E staining based assay. Type of data set: functional.

Data set [15] deals with Mus musculus. The experiment in a line: Antiinflammatory activity in oxazolone-induced delayed type hypersensitivity BALB/c mouse model assessed as mast cell dermal infiltration at 0.6 mg applied topically on ear administered 3 hrs prior to oxazolone challenge on day 7 to 12 post sensitization followed by re-administration of compound on day 13 to 18 without oxazolone challenge measured on day 19 by H and E staining based assay. In kind it is functional.

The test system of data set [16] is Mus musculus. The experiment in a line: Antiinflammatory activity in oxazolone-induced delayed type hypersensitivity BALB/c mouse model assessed as ear weight at 0.6 mg applied topically on ear administered 3 hrs prior to oxazolone challenge on day 7 to 12 post sensitization followed by re-administration of compound on day 13 to 18 without oxazolone challenge measured on day 19 (reference value: 30.2 +/- 0.7 mg). In kind it is functional.

The test system of data set [17] is Mus musculus. Briefly: Antiinflammatory activity in oxazolone-induced delayed type hypersensitivity BALB/c mouse model assessed as ear swelling at 0.6 mg applied topically on ear administered 3 hrs prior to oxazolone challenge on day 7 to 12 post sensitization followed by re-administration of compound on day 13 to 18 without oxazolone challenge measured on day 13 (reference value: 666 +/- 28 micrometer). In kind it is functional.

In data set [18] the test system is Mus musculus. Briefly: Antiinflammatory activity in oxazolone-induced delayed type hypersensitivity BALB/c mouse model assessed as neutrophil dermal infiltration at 0.6 mg applied topically on ear administered 3 hrs prior to oxazolone challenge on day 7 to 12 post sensitization followed by re-administration of compound on day 13 to 18 without oxazolone challenge measured on day 19 by H and E staining based assay. In kind it is functional.

Data set [19] deals with Mus musculus. The experiment in a line: Antiinflammatory activity in oxazolone-induced delayed type hypersensitivity BALB/c mouse model assessed as lymphocyte dermal infiltration at 0.6 mg applied topically on ear administered 3 hrs prior to oxazolone challenge on day 7 to 12 post sensitization followed by re-administration of compound on day 13 to 18 without oxazolone challenge measured on day 19 by H and E staining based assay. In kind it is functional.

Data set [20] has as its system Mus musculus. The experiment in a line: Antiinflammatory activity in oxazolone-induced delayed type hypersensitivity BALB/c mouse model assessed as hyperplastic epidrmis at 0.6 mg applied topically on ear administered 3 hrs prior to oxazolone challenge on day 7 to 12 post sensitization followed by re-administration of compound on day 13 to 18 without oxazolone challenge measured on day 19 by H and E staining based assay. Type of data set: functional.

For data set [21], the system named is Mus musculus. Briefly: Antiinflammatory activity in oxazolone-induced delayed type hypersensitivity BALB/c mouse model assessed as ear swelling at 0.6 mg applied topically on ear administered 3 hrs prior to oxazolone challenge on day 7 to 12 post sensitization followed by re-administration of compound on day 13 to 18 without oxazolone challenge measured on day 19 (reference value: 242 +/- 11 micrometer). In kind it is functional.

Data set [22] concerns Mus musculus. Briefly: Antiinflammatory activity in arachidonic acid-induced ear dermatitis ICR mouse model assessed as reduction in ear swelling at 3 mg administered twice tropically 30 mins prior and 15 mins after arachidonic acid addition measured 60 mins post arachidonic acid challenge relative to control. In kind it is functional.
Data set [23] concerns Mus musculus. The experiment in a line: Antiinflammatory activity in oxazolone-induced delayed type hypersensitivity BALB/c mouse model assessed as ear weight at 2.5 mg applied topically on ear administered 3 hrs prior to oxazolone challenge on day 7 to 12 post sensitization followed by re-administration of compound on day 13 to 18 without oxazolone challenge measured on day 19 (reference value: 30.2 +/- 0.7 mg). Type of data set: functional.

Data set [24] deals with Mus musculus. The experiment in a line: Antiinflammatory activity in arachidonic acid-induced ear dermatitis ICR mouse model assessed as reduction in ear swelling at 0.1 mg administered twice tropically 30 mins prior and 15 mins after arachidonic acid addition measured 60 mins post arachidonic acid challenge relative to control. Type of data set: functional.
Data set [25] deals with Mus musculus. Briefly: Antinociceptive activity in sc dosed mouse model of acetic acid-induced writhing. Type of data set: functional. In general terms: An intraperitoneal irritant provokes the stretching counted in writhing tests.
In data set [26] the test system is Mus musculus. Briefly: Antiinflammatory activity in arachidonic acid-induced ear dermatitis ICR mouse model assessed as reduction in ear swelling at 0.3 mg administered twice tropically 30 mins prior and 15 mins after arachidonic acid addition measured 60 mins post arachidonic acid challenge relative to control. In kind it is functional.
The test system of data set [27] is Mus musculus. The experiment in a line: CNS toxicity in sc dosed mouse model of acetic acid-induced writhing assessed as lowest dose causing side effects. In kind it is organism-based. The note with it: in vivo.
Data set [28] in a line: Displacement of [3H]-DTG from sigma 2 receptor in rat liver membranes after 120 mins by scintillation counting. In kind it is cell membranes, Membrane. For orientation: Displacement assays read how much labelled ligand stays bound in the presence of the test substance.
The test system of data set [29] is Mus musculus. The experiment in a line: Antiinflammatory activity in arachidonic acid-induced ear dermatitis ICR mouse model assessed as reduction in ear swelling at 1 mg administered twice tropically 30 mins prior and 15 mins after arachidonic acid addition measured 60 mins post arachidonic acid challenge relative to control. In kind it is functional.
Data set [30] concerns Mus musculus. The experiment in a line: Antiinflammatory activity in oxazolone-induced delayed type hypersensitivity BALB/c mouse model assessed as ear weight at 0.5 mg applied topically on ear administered 3 hrs prior to oxazolone challenge on day 7 to 12 post sensitization followed by re-administration of compound on day 13 to 18 without oxazolone challenge measured on day 19 (reference value: 30.2 +/- 0.7 mg). Type of data set: functional.

One may read the ED50 as the midpoint of the dose-response relation. A low value points to an effect at a small dose. As usually defined, the Ki is a dissociation constant, usually derived from enzyme kinetics or from competition with a known ligand.

Activity calls are given as the source filed them. No cut-off for these calls is given here.

For the compound `COC(=O)N1CCN(C(=O)Cc2ccc(Cl)c(Cl)c2)[C@@H]2[C@@H](N(C)C)CCC[C@@H]21.Cl`, the Activity result with Rattus norvegicus [1] and with Rattus norvegicus [2] was “Toxic” each time. Besides, the concentration at 1 h in [3] was 0.186 µg/mL; in [4], 101 ng/g. In addition, in data set [5], the Kp at 1 h amounted to 0.54. The concentration at 0.25 h in data set [6] was 0.355 µg/mL.
The compound `COC(=O)N1CCN(C(=O)Cc2ccc(Cl)c(Cl)c2)[C@@H]2[C@@H](N3CCCC3)CCC[C@@H]21.Cl` returned a concentration at 0.25 h in [7] of 0.117 µg/mL. The concentration at 1 h in [8] is 0.0373 µg/mL; in data set [9], 24.2 ng/g. Besides, the Activity result with Rattus norvegicus [10] and in the data set on Rattus norvegicus [13] was “Toxic” in each case. For the same compound, in data set [11], the Kp at 1 h came out at 0.65. For the same compound, in data set [12], the Kp at 0.25 h came out at 0.5.
On to `C[C@]12CCC(=O)C=C1CC[C@@H]1[C@@H]2[C@@H](O)C[C@@]2(C)[C@H]1CC[C@]2(O)C(=O)CO` [HYDROCORTISONE], for which the outcome in the data set on Mus musculus [14], in the data set with Mus musculus [15], in the data set on Mus musculus [18], in the data set with Mus musculus [19] and in the data set with Mus musculus [20] was Active. Also, the Activity with Mus musculus [16] is reported as 17.2 mg; with Mus musculus [17] it was 332 um; in the data set with Mus musculus [21], 66 um.
Take `COC(=O)N1CCN(C(=O)Cc2ccc(Cl)c(Cl)c2)[C@@H]2[C@@H](N3CCCC3)CCC[C@@H]21`: the “inhibition (INH)” value was determined as 51% in the data set on Mus musculus [22], 23% in the data set with Mus musculus [24], 27% in the data set with Mus musculus [26] and 27% in the data set with Mus musculus [29]. Also, the Activity in the data set with Mus musculus [23] worked out at 28.2 mg; in the data set with Mus musculus [30], 27.5 mg. In addition, in the data set with Mus musculus [25], the ED50 came out at 0.26 mg/kg. Moreover, the MTC in the data set on Mus musculus [27] worked out at 0.06 mg/kg. Further, in data set [28], the Ki stood at 0.252 µM.

For the origin of these results see ChEMBL document CHEMBL4007424, “Design and Synthesis of Enantiomerically Pure Decahydroquinoxalines as Potent and Selective κ-Opioid Receptor Agonists with Anti-Inflammatory Activity in Vivo” (J Med Chem, 2017).
